Values after ≈ are worked out from the molar mass of the structure shown. Where two headings read alike, the source gives them in different places.
What was measured:
HIV-1 (IIIB) = assay: microbe, parasite or virus in culture; type: cell-based
in vitro = settings: human; for CC50 at 5 days: uninfected MT-4 cells
physchem = settings: 23 °C, thermodynamic from solid; for solubility thermodynamic at 24 h: FaSSIF
[1] = Human immunodeficiency virus 1, MT4, 120 h, HIV-1 (IIIB) replication in MT-4 cells, 5 days incubation, Cell Titer Glo, read-out: MT4 EC50

Row | SMILES | EC50 (HIV-1 (IIIB); [1]) | solubility thermodynamic at 24 h (physchem) | EC50 (HIV-1 (IIIB); Human immunodeficiency virus 1, IIIB, MT4, 120 h, read-out: MT4 EC50 (nM)) | CC50 (in vitro) | solubility thermodynamic (physchem; fassif) | CC50 at 5 days (in vitro)
1 | CC1=NO[C@@]2(CC[C@H](C)N3C[C@H]2n2cc(C(=O)NCc4ccc(F)cc4F)c(=O)c(OC(=O)N(C)c4ncc(C(=O)O)cc4CN(CC(=O)O)C(=O)OCOP(=O)(O)O)c2C3=O)C1 [Compound 8, 5-(((carboxymethyl)(((phosphonooxy)methoxy)carbonyl)amino)methyl)-6-(((((3′S,5S,7′R)-10′-((2,4-difluorobenzyl)carbamoyl)-3,3′-dimethyl-1′,11′-dioxo-1′,4′,5′,11′-tetrahydro-3′H,4H,7′H-spiro[isoxazole-5,6′-[2,7]methanopyrido[1,2-a][1,4]diazonin]-12′-yl)oxy)carbonyl)(methyl)amino)nicotinic acid] |  |  | 0.982 nM | 10.4 µM | 4800 µg/mL (≈ 5.3 mM) | 
2 | CNCC(=O)OCc1cccnc1N(C)C(=O)OCOc1c2n(cc(C(=O)NCc3ccc(F)cc3F)c1=O)[C@@H]1CN(C2=O)[C@@H](C)CC[C@]12CC(C)=NO2 [Compound 9, (2-((((((3′S,5S,7′R)-10′-((2,4-difluorobenzyl)carbamoyl)-3,3′-dimethyl-1′11′-dioxo-1′,4′,5′,11′-tetrahydro-3′H,4H,7′H-spiro[isoxazole-5,6′-[2,7]methanopyrido[1,2-a][1,4]diazonin]-12′-yl)oxy)methoxy)carbonyl)(methyl)amino)pyridin-3-yl)methyl methylglycinate] | 1.4 nM | 3240 µg/mL (≈ 4.3 mM) |  |  |  | 10.5 µM
3 | CC1=NO[C@@]2(CC[C@H](C)N3C[C@H]2n2cc(C(=O)NCc4ccc(F)cc4F)c(=O)c(OCOC(=O)N(C)c4ncccc4COC(=O)[C@@H](N)CCCCN)c2C3=O)C1 [Compound 10, (2-((((((3′S,5S,7′R)-10′-((2,4-difluorobenzyl)carbamoyl)-3,3′-dimethyl-1′,11′-dioxo-1′,4′,5′,11′-tetrahydro-3′H,4H,7′H-spiro[isoxazole-5,6′-[2,7]methanopyrido[1,2-a][1,4]diazonin]-12′-yl)oxy)methoxy)carbonyl)(methyl)amino)pyridin-3-yl)methyl L-lysinate] | 3.19 nM | 3320 µg/mL (≈ 4.11 mM) |  |  |  | 10.2 µM

Continued, in another order:

Row | EC50 (HIV-1 (IIIB); [1]) | solubility thermodynamic at 24 h (physchem) | SMILES | EC50 (HIV-1 (IIIB); Human immunodeficiency virus 1, IIIB, MT4, 120 h, read-out: MT4 EC50 (nM)) | CC50 (in vitro) | solubility thermodynamic (physchem; fassif) | CC50 at 5 days (in vitro)
4 | 1.9 nM | 2 µg/mL (≈ 0.00266 mM) | CC1=NO[C@@]2(CC[C@H](C)N3C[C@H]2n2cc(C(=O)NCc4ccc(F)cc4F)c(=O)c(OCOC(=O)N(C)c4ncccc4COC(=O)[C@H](C)N)c2C3=O)C1 [Compound 11, (2-((((((3′S,5S,7′R)-10′-((2,4-difluorobenzyl)carbamoyl)-3,3′-dimethyl-1′,11′-dioxo-1′,4′,5′,11′-tetrahydro-3′H,4H,7′H-spiro[isoxazole-5,6′-[2,7]methanopyrido[1,2-a][1,4]diazonin]-12′-yl)oxy)methoxy)carbonyl)(methyl)amino)pyridin-3-yl)methyl L-alaninate] |  |  |  | 14.5 µM
5 | 4.33 nM | 2700 µg/mL (≈ 3.47 mM) | CC1=NO[C@@]2(CC[C@H](C)N3C[C@H]2n2cc(C(=O)NCc4ccc(F)cc4F)c(=O)c(OCOC(=O)N(C)c4ncccc4COC(=O)[C@@H](N)C(C)C)c2C3=O)C1 [Compound 12, (2-((((((3′S,5S,7′R)-10′-((2,4-difluorobenzyl)carbamoyl)-3,3′-dimethyl-1′,11′-dioxo-1′,4′,5′,11′-tetrahydro-3′H,4H,7′H-spiro[isoxazole-5,6′-[2,7]methanopyrido[1,2-a][1,4]diazonin]-12′-yl)oxy)methoxy)carbonyl)(methyl)amino)pyridin-3-yl)methyl L-valinate] |  |  |  | 14.6 µM
6 | 0.762 nM | 1980 µg/mL (≈ 3.02 mM) | CC1=NO[C@@]2(CC[C@H](C)N3C[C@H]2n2cc(C(=O)NCc4ccc(F)cc4F)c(=O)c(OCOC(=O)N(C)C[C@@H]4CCCN4)c2C3=O)C1 [Compound 13, (((3′S,5S,7′R)-10′-((2,4-difluorobenzyl)carbamoyl)-3,3′-dimethyl-1′,11′-dioxo-1′,4′,5′,11′-tetrahydro-3′H,4H,7′H-spiro[isoxazole-5,6′-[2,7]methanopyrido[1,2-a][1,4]diazonin]-12′-yl)oxy)methyl methyl(((S)-pyrrolidin-2-yl)methyl)carbamate] |  |  |  | 10.8 µM

From patent US20250127801A1, “BRIDGED TRICYCLIC CARBAMOYLPYRIDONE COMPOUNDS AND USES THEREOF” (priority 2023, published 2025)
